Experimental data published in publication PMC9458065, “Discovery of Quinacrine as a Potent Topo II and Hsp90 Dual-Target Inhibitor, Repurposing for Cancer Therapy” (Molecules, 2022).
Structures can show the parent of a compound that is named as a salt.

What was measured:
[1] = system: HL60 (HL−60 human leukemia cell); test: cells; design: MTT cell proliferation assay, OD 570 nm, IC50 from triplicate dose-response; settings: MTT, 48 h
Description: The cell proliferation assay was evaluated using the MTT assay as described by Mosmann, with modifications. Cells were seeded into 96−well plates (5 × 10^3 cells/well) and exposed to various concentrations of compounds. After 48 h of treatment, 20 μL of 2.5 mg/mL MTT reagent was added to each well, and the cells were further incubated for 4 h at 37 ℃. The cells in each well were then treated with 100 μL of dimethyl sulfoxide (DMSO), and the optical density (OD) was recorded at 570 nm using a microplate reader (Bio−Tek). All experiments were performed in parallel three times, and the IC50 values were derived from the mean OD values of triplicate tests versus the drug concentration curves. […] HL−60 human leukemia cell is sensitive to Topo II inhibitors, which are commonly used to evaluate the inhibitory effect of Topo II inhibitors on proliferation.

human Topo IIα = biological target: T1, human Topo IIα (Homo sapiens, UniProt P11388); test: pBR322 DNA relaxation, agarose gel; format: biochemical
T1 construct: gene TOP2A; full-length enzyme of a commercial relaxation kit (Inspiralis)
T1 sequence (P11388 whole entry): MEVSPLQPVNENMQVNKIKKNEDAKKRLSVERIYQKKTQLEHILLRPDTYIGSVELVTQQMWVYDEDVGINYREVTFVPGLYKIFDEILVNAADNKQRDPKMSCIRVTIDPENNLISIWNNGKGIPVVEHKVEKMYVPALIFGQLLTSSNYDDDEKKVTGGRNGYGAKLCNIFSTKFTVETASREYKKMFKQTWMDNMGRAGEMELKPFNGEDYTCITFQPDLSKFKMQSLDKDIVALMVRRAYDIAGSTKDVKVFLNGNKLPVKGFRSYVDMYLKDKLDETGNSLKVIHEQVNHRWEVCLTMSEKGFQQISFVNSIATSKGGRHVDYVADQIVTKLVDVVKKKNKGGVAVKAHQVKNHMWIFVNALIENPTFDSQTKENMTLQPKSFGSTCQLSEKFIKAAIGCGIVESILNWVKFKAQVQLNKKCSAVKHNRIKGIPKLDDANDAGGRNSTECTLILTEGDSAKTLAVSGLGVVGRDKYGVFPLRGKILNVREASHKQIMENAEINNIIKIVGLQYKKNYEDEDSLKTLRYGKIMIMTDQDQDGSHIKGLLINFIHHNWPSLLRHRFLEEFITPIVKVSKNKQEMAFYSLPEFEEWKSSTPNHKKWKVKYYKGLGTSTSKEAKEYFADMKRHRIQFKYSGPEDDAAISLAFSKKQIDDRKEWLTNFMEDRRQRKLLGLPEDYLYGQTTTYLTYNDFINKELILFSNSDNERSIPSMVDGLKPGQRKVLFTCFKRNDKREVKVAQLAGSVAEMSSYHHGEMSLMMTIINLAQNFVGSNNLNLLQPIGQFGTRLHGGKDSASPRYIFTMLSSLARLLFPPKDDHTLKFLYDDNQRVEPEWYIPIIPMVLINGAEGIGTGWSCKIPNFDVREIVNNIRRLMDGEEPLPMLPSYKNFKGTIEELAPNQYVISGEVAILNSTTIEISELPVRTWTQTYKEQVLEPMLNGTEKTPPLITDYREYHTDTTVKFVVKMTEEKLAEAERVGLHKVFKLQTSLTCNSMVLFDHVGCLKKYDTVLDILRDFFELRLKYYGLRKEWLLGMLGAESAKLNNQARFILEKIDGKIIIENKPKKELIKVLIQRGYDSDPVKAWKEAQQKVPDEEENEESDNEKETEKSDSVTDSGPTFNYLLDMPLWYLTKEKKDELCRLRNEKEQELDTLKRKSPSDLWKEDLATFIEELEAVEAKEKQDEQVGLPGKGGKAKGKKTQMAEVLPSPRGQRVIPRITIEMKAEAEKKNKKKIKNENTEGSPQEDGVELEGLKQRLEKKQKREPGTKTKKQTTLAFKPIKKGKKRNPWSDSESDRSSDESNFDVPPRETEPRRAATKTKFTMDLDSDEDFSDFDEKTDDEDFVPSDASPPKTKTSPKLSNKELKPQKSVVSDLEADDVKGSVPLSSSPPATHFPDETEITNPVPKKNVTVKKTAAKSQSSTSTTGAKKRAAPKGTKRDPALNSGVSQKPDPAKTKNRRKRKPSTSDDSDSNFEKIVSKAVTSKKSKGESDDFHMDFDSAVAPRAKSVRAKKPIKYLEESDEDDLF

hTopo IIα ATPase = biological target: T2, hTopo IIα ATPase (Homo sapiens, UniProt P11388); test: malachite green ATPase assay; format: biochemical; settings: 100 µM; […] ATP, […] MgCl2, pH […] °C, […] min; relative inhibition rate, not absolute inhibition
T2 construct: gene TOP2A; ATPase region, residues 29-428 (400 residues), N-terminal 6xHis, pET28a, E. coli BL21 (DE3)
T2 sequence (P11388 29-428): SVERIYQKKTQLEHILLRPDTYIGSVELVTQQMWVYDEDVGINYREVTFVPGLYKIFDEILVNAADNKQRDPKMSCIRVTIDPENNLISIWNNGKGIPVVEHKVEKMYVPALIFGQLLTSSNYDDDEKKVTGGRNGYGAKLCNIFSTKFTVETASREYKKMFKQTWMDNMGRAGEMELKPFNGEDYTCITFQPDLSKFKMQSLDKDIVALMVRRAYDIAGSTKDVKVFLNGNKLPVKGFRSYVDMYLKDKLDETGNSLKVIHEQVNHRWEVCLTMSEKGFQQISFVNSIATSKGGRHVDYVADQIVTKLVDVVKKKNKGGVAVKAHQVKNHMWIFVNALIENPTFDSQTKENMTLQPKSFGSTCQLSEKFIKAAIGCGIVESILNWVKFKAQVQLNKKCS
From the text: malachite green ATPase assay on hTopo IIα ATPase

Hsp90α = biological target: T3, Hsp90α (Homo sapiens, UniProt P07900); test: malachite green ATPase assay; format: biochemical; settings: read-out: % inhibition at 100 μM
T3 construct: gene HSP90AA1

Hsp90α N−ATPase (9−236) = biological target: T4, Hsp90α N−ATPase (9−236) (Homo sapiens, UniProt P07900); test: fluorescence polarization displacement of GM-FITC
T4 construct: gene HSP90AA1

Structure (SMILES) | IC50 [1] | further results
O=C1C(O)=C([C@H]2CC[C@H](c3ccc(Cl)cc3)CC2)C(=O)c2ccccc21 [2−G7, Atovaquone] | 9.43 µM | 
N=C(N)NC(=O)Cc1c(Cl)cccc1Cl [2−H11, Guanfacine HCl] | > 25 µM | 
CC[N+](CC)(CC)CCOc1cccc(OCC[N+](CC)(CC)CC)c1OCC[N+](CC)(CC)CC [3−C11, Gallamine triethiodide] | > 25 µM | 
CC(=O)Nc1ccc(CC(=O)O)cc1 [3−H6, Actarit] | 8.02 µM | 
CC1(C)S[C@@H]2[C@H](NC(=O)[C@H](N)c3ccccc3)C(=O)N2[C@H]1C(=O)O [5−E6, Ampicillin trihydrate] | > 25 µM | 
COc1ccc(C[C@@H]2c3cc(OC)c(OC)cc3CC[N@+]2(C)CCC(=O)OCCCCCOC(=O)CC[N@@+]2(C)CCc3cc(OC)c(OC)cc3[C@H]2Cc2ccc(OC)c(OC)c2)cc1OC [5−E11, Atracurium besylate] | 22.9 µM | 
CCN(CC)CCCC(C)Nc1c2ccc(Cl)cc2nc2ccc(OC)cc12 (centres unmarked) [7−F2, quinacrine] | 5.22 µM | IC50 (human Topo IIα): 6.18 µM; Topo II ATPase RIR (%) * (hTopo IIα ATPase): 42.3%; inhibition at 100 µM (Hsp90α): ~70%; IC50 (Hsp90α N−ATPase (9−236)): 13.6 µM
Nc1ccc(S(=O)(=O)Nc2ncccn2)cc1 [7−H5, Sulfadiazine] | > 25 µM | 
O=C(O)c1cc(/N=N/c2ccc(S(=O)(=O)Nc3ccccn3)cc2)ccc1O [7−H7, Sulfasalazine] | > 25 µM | 
CN1C(C(=O)Nc2ccccn2)=C(O)c2sccc2S1(=O)=O [7−H10, Tenoxicam] | > 25 µM | 
CN[C@@H]1C[C@H]2O[C@@](C)([C@@H]1OC)n1c3ccccc3c3c4c(c5c6ccccc6n2c5c31)C(=O)NC4 [K−B6, Staurosporine] |  | Topo II ATPase RIR (%) * (hTopo IIα ATPase): 111.2%
N#C/C(=C\c1ccc(O)c(O)c1)C(N)=S [K−C2, Tyrphostin 47] | > 25 µM | Topo II ATPase RIR (%) * (hTopo IIα ATPase): 90.3%
Oc1cc(O)cc(/C=C/c2ccc(O)c(O)c2)c1 [K−C11, Piceatannol] | 12.1 µM | Topo II ATPase RIR (%) * (hTopo IIα ATPase): 70.5%
N#C/C(=C\c1ccc(O)c(O)c1)C(=O)NCc1ccccc1 [K−D1, AG−490] | 19 µM | Topo II ATPase RIR (%) * (hTopo IIα ATPase): 61.6%
COC[C@H]1OC(=O)c2coc3c2[C@@]1(C)C1=C(C3=O)[C@@H]2CCC(=O)[C@@]2(C)C[C@H]1OC(C)=O [K−D6, Wortmannin] | 13.3 µM | 
CN(C)CCCn1cc(C2=C(c3c[nH]c4ccccc34)C(=O)NC2=O)c2ccccc21 [K−D7, GF 109203X] | 9.51 µM | 
Cc1cc(O)c2c(=O)c3c(O)cc(O)c4c5c(O)cc(O)c6c(=O)c7c(O)cc(C)c8c1c2c(c34)c(c78)c65 [K−D8, Hypericin] | > 25 µM | 
Cn1cc(C2=C(c3cn(CCCSC(=N)N)c4ccccc34)C(=O)NC2=O)c2ccccc21 [K−D9, Ro 31−8220] | 1.18 µM | Topo II ATPase RIR (%) * (hTopo IIα ATPase): 99.7%
O=c1c(-c2ccc(O)cc2)coc2cc(O)ccc12 [K−F12, Daidzein] | 3.02 µM | Topo II ATPase RIR (%) * (hTopo IIα ATPase): 101.2%

The next lines start with results.

IC50 [1] | Structure (SMILES) | further results
> 25 µM | CN1CCN(CCCN2c3ccccc3Sc3ccc(C(F)(F)F)cc32)CC1 [3−E6, Trifluoperazine 2HCl] | 
7.2 µM | O=C(c1ccc(OCCN2CCCCC2)cc1)c1c(-c2ccc(O)cc2)sc2cc(O)ccc12 [4−C3, Raloxifene HCl] | 
> 25 µM | Nc1ccc(C(=O)O)c(O)c1 [5−E4, 4−aminosalicylic acid] | 
> 25 µM | Nc1ccc(O)c(C(=O)O)c1 [5−E5, 5−aminosalicylic acid] | 
19.7 µM | COc1cc2nc(N3CCN(C(=O)C4COc5ccccc5O4)CC3)nc(N)c2cc1OC (centres unmarked) [6−B10, Doxazosin mesylate] | 
> 25 µM | CN[C@@H]1[C@H](O[C@H]2[C@H](O[C@H]3[C@H](O)[C@@H](O)[C@H](N=C(N)N)[C@@H](O)[C@@H]3N=C(N)N)O[C@@H](C)[C@]2(O)C=O)O[C@@H](CO)[C@H](O)[C@H]1O [7−H3, Streptomycin sulfate] | 
> 25 µM | COc1ncnc(NS(=O)(=O)c2ccc(N)cc2)c1OC [7−H4, Sulfadoxine] | 
> 25 µM | COc1cc(NS(=O)(=O)c2ccc(N)cc2)nc(OC)n1 [7−H6, Sulfadimethoxine] | 
> 25 µM | CCOc1ccccc1OCCN[C@H](C)Cc1ccc(OC)c(S(N)(=O)=O)c1 [7−H8, Tamsulosin HCl] | 
> 25 µM | CCCc1nc2c(C)cc(-c3nc4ccccc4n3C)cc2n1Cc1ccc(-c2ccccc2C(=O)O)cc1 [7−H9, Telmisartan] | Topo II ATPase RIR (%) * (hTopo IIα ATPase): 79.4%
> 25 µM | COc1cc2nc(N3CCN(C(=O)C4CCCO4)CC3)nc(N)c2cc1OC (centres unmarked) [7−H11, Terazosin HCl] | 
> 25 µM | N[C@@H](Cc1cc(I)c(Oc2cc(I)c(O)c(I)c2)c(I)c1)C(=O)O [8−H9, L−thyroxine] | 
> 25 µM | N#CC(C#N)=C(N)/C(C#N)=C/c1cc(O)c(O)c(O)c1 [K−C3, Tyrphostin 51] | Topo II ATPase RIR (%) * (hTopo IIα ATPase): 85.8%
0.75 µM | CO[C@@H]1[C@H](N(C)C(=O)c2ccccc2)C[C@H]2O[C@]1(C)n1c3ccccc3c3c4c(c5c6ccccc6n2c5c31)C(=O)NC4 [K−C10, PKC−412] | 
11.1 µM | CCCCCCCCCCCCC/C=C/[C@@H](O)[C@@H](N)CO [K−D10, Sphingosine] | Topo II ATPase RIR (%) * (hTopo IIα ATPase): 94.3%
0.17 µM | COc1cc([C@@H]2c3cc4c(cc3[C@@H](O[C@@H]3O[C@@H]5CO[C@@H](C)O[C@H]5[C@H](O)[C@H]3O)[C@H]3COC(=O)[C@H]23)OCO4)cc(OC)c1O [VP−16] | 
